Values of other authors in US20050203105A1, “Composition and method for controlling alcohol-induced facial flushing in susceptible humans” (priority 2003, published 2005).
Read-outs that look alike come from different tables or passages of the source.

Columns and labels:
[1] = tested on: potassium rectifier currents
[2] = for Half-life: increased in renal impairment (cimetidine: also hepatic impairment and the elderly); for Elimination, Urine, Unchanged, Oral / effect of food on absorption: oral
[3] = dose range of 10 to 40 mg
[4] = tested on: flushing responses to red wine, chocolate and hot water; conditions: one patient with carcinoid syndrome; two weeks of oral prior treatment
QT interval = conditions: in vivo
[5] = for time to peak plasma levels: oral
H1 receptor = H1 receptor (Homo sapiens, UniProt P35367)
Sequence of H1 receptor (P35367 whole entry): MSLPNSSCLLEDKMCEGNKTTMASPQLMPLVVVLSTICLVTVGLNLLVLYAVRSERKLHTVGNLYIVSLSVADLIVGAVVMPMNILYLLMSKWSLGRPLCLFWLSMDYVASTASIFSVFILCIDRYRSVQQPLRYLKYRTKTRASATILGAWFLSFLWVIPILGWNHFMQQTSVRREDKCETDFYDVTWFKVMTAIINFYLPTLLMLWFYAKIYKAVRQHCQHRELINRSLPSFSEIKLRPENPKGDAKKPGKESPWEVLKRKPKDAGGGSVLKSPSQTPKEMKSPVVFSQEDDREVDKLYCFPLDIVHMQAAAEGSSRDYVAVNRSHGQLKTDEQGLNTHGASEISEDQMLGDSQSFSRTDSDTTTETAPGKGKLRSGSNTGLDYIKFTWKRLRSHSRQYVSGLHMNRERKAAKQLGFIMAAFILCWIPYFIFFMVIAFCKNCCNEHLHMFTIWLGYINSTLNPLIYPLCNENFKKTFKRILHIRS

muscarinic receptors = tested on: muscarinic receptors; design: key: +++++ = Very high; +++ = high; ++ = moderate; + = low; ± = low to none
alcohol-induced flushing [6] = conditions: for rise in skin oxygen tension after sherry: oral, 30 minutes before 30-50 ml of sherry
alcohol-induced flushing [7] = conditions: for Facial flushing: 0.64 gm orally one hour before ethanol
[8] = given with an MAOI
ethanol intoxication = conditions: intravenous
[9] = tested on: alcohol-induced rosacea flushing; conditions: subcutaneous pretreatment; 360 ml of 6% ethanol; patients with rosacea

For CCOC(=O)N1CCC(=C2c3ccc(Cl)cc3CCc3cccnc32)CC1 [Loratadine, ethyl 4-(8-chloro-5,6-dihydro-11H-benzo[5,6]cyclohepta[1,2-b]pyridin-11-ylidene)-1-piperidinecarboxylate], the potassium rectifier currents [1] is given as “inhibit the potassium rectifier currents”.

For NC(N)=Nc1nc(CSCCC(N)=NS(N)(=O)=O)cs1 [Famotidine], the “effect on hepatic oxidative metabolism” value (cytochrome P450 enzymes) is listed as “do not seem to interfere with hepatic oxidation”, the “Peak Plasma Concentration” value ([2]; 40 mg dose, dose dependent) is listed as 0.076 to 0.1 µg/mL and the “Elimination, Urine, Unchanged, IV” value ([2]; IV) is listed as 65-70%. The Bioavailability ([2]; in vivo) was 40-45%, the “Elimination, Metabolized” value ([2]; in vivo) was 30-35% and the “Protein Binding” value ([2]; in vivo) was 15-20%. The “Time to Peak Plasma Concentration” value ([2]; in vivo) was 1 to 3 h, the “Volume of Distribution” value ([2]; in vivo) was 1.1 to 1.4 L/kg and the Half-life [2] was 2.5-3.5^3 hrs. For the same compound, the “Elimination, Urine, Unchanged, Oral” value [2] was 25-30%.

In the case of Clc1ccc2c(c1)CCc1cccnc1C2=C1CCNCC1 [desloratadine, descarboethoxyloratadine], the “dose dependence of pharmacokinetics” value [3] is listed as “independent of dose”.

In the case of Clc1cccc(Cl)c1N=C1NCCN1 [clonidine], the “flushing response to red wine, chocolate and hot water challenges” value (“flushing response to red wine” for short) [4] is listed as “blocked the flushing responses to red wine and chocolate, but not to hot water”.

In the case of CC(C)(C)c1ccc(C(O)CCCN2CCC(C(O)(c3ccccc3)c3ccccc3)CC2)cc1 (centres unmarked) [Terfenadine], the “single overdose associated with serious cardiovascular adverse events” value (QT interval) is given as at least 360 mg, the “dose eliminated via the urine” value ([5]; in vivo) is given as 40% and the elimination half-life ([5]; in vivo) is given as 20 h. For the same compound, the “fecal excretion of the dose” value ([5]; in vivo) was 60% and the “time to peak plasma levels” value [5] was 2 h.

In the case of CN1CCC(CN2c3ccccc3Sc3ccccc32)C1 (centres unmarked) [Methdilazine], the Antihistaminic activity (H1 receptor) is listed as “++ to +++” and the Anticholinergic activity (muscarinic receptors) is listed as “+++”.

For CN(C)CCOC(c1ccc(Cl)cc1)c1ccccn1 (centres unmarked) [Carbinoxamine], the Antihistaminic activity (H1 receptor) is listed as “+ to ++” and the Anticholinergic activity (muscarinic receptors) is listed as “+++”.

In the case of CN(C)CCN(Cc1ccccc1)c1ccccn1 [Tripelennamine], the Antihistaminic activity (H1 receptor) is given as “+ to ++” and the Anticholinergic activity (muscarinic receptors) is given as “±”.

For CN(C)CCC(c1ccc(Cl)cc1)c1ccccn1 (centres unmarked) [Chlorpheniramine], the “sedative action of absorbed alcohol” value (alcohol-induced flushing [6]; in vivo) is listed as “potentiates the sedative action of the alcohol absorbed”, the “rise in skin oxygen tension after sherry” value (alcohol-induced flushing [6]) is listed as “did not affect the rise in skin oxygen tension” and the “flushing response to red wine” value [4] is listed as “did not affect the flushing response”.

In the case of CC(CN(C)C)CN1c2ccccc2Sc2ccccc21 (centres unmarked) [Trimeprazine], the Antihistaminic activity (H1 receptor) is given as “++ to +++” and the Anticholinergic activity (muscarinic receptors) is given as “+++”.

In the case of CC(=O)Oc1ccccc1C(=O)O [aspirin, acetylsalicylic acid], the Body sway (alcohol-induced flushing [7]; both groups of subjects) is given as “reduced”, the “alcohol induced increase in heart rate” value (alcohol-induced flushing [7]; flushing group) is given as “reduced” and the Facial flushing (alcohol-induced flushing [7]; flushing group) is given as “markedly reduced”. For the same compound, the Facial flushing (alcohol-induced flushing [7]; non-flushing Occidentals) was “slightly increased”.

In the case of CN(C)CCC(c1ccc(Br)cc1)c1ccccn1 (centres unmarked) [Brompheniramine], the Antihistaminic activity (H1 receptor) is listed as “+++” and the Anticholinergic activity (muscarinic receptors) is listed as “++”.

For CN(C)CC[C@@H](c1ccc(Cl)cc1)c1ccccn1 [Dexchlorpheniramine], the “interaction with an MAOI” value [8] is given as “may cause severe hypotension”.

In the case of COc1ccc(CCN2CCC(Nc3nc4ccccc4n3Cc3ccc(F)cc3)CC2)cc1 [Astemizole], the “QT prolongation, ventricular arrhythmias, torsade de pointes” value (QT interval) is listed as “can cause QT interval prolongation/ventricular arrhythmias”, the “half-life, distribution phase” value ([5]; biphasic) is listed as 20 h and the protein bound ([5]; in vivo) is listed as 96.7%. The “time to peak plasma levels” value [5] was at most 1 h and the “reduction of absorption when taken with food” value ([5]; with food) was 60%.

For CNC(=C[N+](=O)[O-])NCCSCc1ccc(CN(C)C)o1 [Ranitidine], the “effect on hepatic oxidative metabolism” value (cytochrome P450 enzymes) is listed as “do not seem to interfere with hepatic oxidation”, the Bioavailability ([2]; IM) is listed as “(90-100 IM) %” and the “Peak Plasma Concentration” value ([2]; IM) is listed as “(0.58 IM) mcg/ml”. For the same compound, the “Time to Peak Plasma Concentration” value ([2]; IM) was “(0.25 IM) hrs”, the “Elimination, Urine, Unchanged, IV” value ([2]; IV) was 68-79% and the Bioavailability ([2]; in vivo) was 50-160%. For the same compound, the “Elimination, Metabolized” value ([2]; in vivo) was under 10%, the “Protein Binding” value ([2]; in vivo) was 15% and the “Time to Peak Plasma Concentration” value ([2]; in vivo) was 1 to 3 h. For the same compound, the “Volume of Distribution” value ([2]; in vivo) was 1.2 to 1.9 L/kg, the Half-life [2] was 2-3^3 hrs and the “Peak Plasma Concentration” value ([2]; no dose given, dose dependent) was 0.44 to 0.55 µg/mL. The “Elimination, Urine, Unchanged, Oral” value [2] was 30-35% and the “effect of food on absorption” value [2] was “not significantly impaired by the administration of food”.

For CN/C(=N/CCSCc1nc[nH]c1C)NC#N [Cimetidine], the “rise in skin oxygen tension after sherry” value (alcohol-induced flushing [6]) is given as “did noticeably reduce the increase in oxygen concentration”, the “effect on hepatic oxidative metabolism” value (cytochrome P450 enzymes) is given as “inhibits hepatic oxidative metabolism by most cytochrome P450 enzymes” and the “flushing response to red wine” value [4] is given as “blocked the flushing responses to red wine and chocolate, but not to hot water”. For the same compound, the “Peak Plasma Concentration” value ([2]; 300 mg dose, dose dependent) was 0.7 to 3.2 µg/mL, the “Elimination, Urine, Unchanged, IV” value ([2]; IV) was 75% and the “Peak Plasma Concentration” value ([2]; IV) was “(3.5-7.5 IV) mcg/ml”. The Bioavailability ([2]; in vivo) was 60-70%, the “Elimination, Metabolized” value ([2]; in vivo) was 30-40% and the “Protein Binding” value ([2]; in vivo) was 13-25%. The “Time to Peak Plasma Concentration” value ([2]; in vivo) was 0.75 to 1.5 h, the “Volume of Distribution” value ([2]; in vivo) was 0.8 to 1.2 L/kg and the “removal by hemodialysis or peritoneal dialysis” value ([2]; in vivo) was “not significantly removed by hemodialysis or peritoneal dialysis”. The Half-life [2] was “≈2^2 hrs”, the “Elimination, Urine, Unchanged, Oral” value [2] was 48% and the “effect of food on absorption” value [2] was “unaffected by food”.

For C=CCN1CC[C@]23c4c5ccc(O)c4O[C@H]2C(=O)CC[C@@]3(O)[C@H]1C5 [naloxone], the “impairment by ethanol (typing errors)” value (ethanol intoxication; CPAF group) is listed as “reversed this effect”, the “impairment by ethanol (typing errors)” value (ethanol intoxication; non-flushing group) is listed as “no effect” and the “alcohol-induced rosacea flushing (AIRF)” value [9] is listed as “blocked”.

In the case of CNC(=C[N+](=O)[O-])NCCSCc1csc(CN(C)C)n1 [Nizatidine], the “Peak Plasma Concentration” value ([2]; 150 mg dose, dose dependent) is listed as 0.7 to 1.8 µg/mL, the “Peak Plasma Concentration” value ([2]; 300 mg dose, dose dependent) is listed as 1.4 to 3.6 µg/mL and the “Plasma concentrations 12 hours after administration” value ([2]; 12 hours after administration) is listed as “less than 10 mcg/L”. For the same compound, the Bioavailability ([2]; in vivo) was over 90%, the “Elimination, Metabolized” value ([2]; in vivo) was under 18% and the “Protein Binding” value ([2]; in vivo) was “≈35%”. The “Time to Peak Plasma Concentration” value ([2]; in vivo) was 0.5 to 3 h, the “Volume of Distribution” value ([2]; in vivo) was 0.8 to 1.5 L/kg and the Half-life [2] was 1-2^3 hrs. The “Elimination, Urine, Unchanged, Oral” value [2] was 60%.

In the case of CN1CCC2=C(C1)C(c1ccccc1)c1ccccc12 (centres unmarked) [Phenindamine], the Antihistaminic activity (H1 receptor) is given as “++” and the Anticholinergic activity (muscarinic receptors) is given as “++”.

In the case of CN1CCC(=C2c3ccccc3CCc3cccnc32)CC1 [Azatadine], the Antihistaminic activity (H1 receptor) is given as “++” and the Anticholinergic activity (muscarinic receptors) is given as “++”.

In the case of Cc1ccc(/C(=C\CN2CCCC2)c2ccccn2)cc1 [Triprolidine], the Antihistaminic activity (H1 receptor) is listed as “++ to +++” and the Anticholinergic activity (muscarinic receptors) is listed as “++”.
